# B1: RCG: glycerol dehydrogenase derived from Cellulomonas sp. strain KNK0102, amino acid sequence SEQ ID NO: 1 (protein, listed as Cellulomonas sp.)
# chain: MSEVPVRTLISPLRYVQARGALTRLGEFVRPIGTKPLLVADDVVWGIVQDTVAVSFQEQDLPRHRTGFGTYATAAEVDRLAREIDELGADVIVGIGGGSTIDAVKAAGHLRGIRWVSVPTVASTDAPCSALSVIYTEDGAFEEYRFFPHNPDLVLVDTGLVANAPVKFLVAGVGDALATWIEARAVAEANASTMAGGLPLVTGTALAQLSWDILWENALPAIDAVKNHLVTPAVEKVVEANTLLSGLGFESGGLAAAHAIHNGLTAAPQTHGLTHGQKVNIGSVTQLVLEGAPTEEIEEFVRFTTRVGLPNTLTEIGLTADDVHDLTRVAEAATAEGETIHAMPFPVRVPELVDALRSIEGFSRRVRAEAGLPEPVKHTAH
# Assays:
# RCG = test: Substrate specificity of RCG (oxidation activity with NAD+); type: biochemical, Cellulomonas sp. strain KNK0102
# Procedure: Oxidation activity was determined by adding 2 mM of coenzyme NAD^+, 10 mM of a compound shown in Table 2, and the enzyme solution to a 100 mM phosphate buffer (pH 8.0) to react at 30° C. for 3 min. followed by the measurement of an increase in absorbance at the wavelength of […]. In Table 2, relative activities are summarized, wherein the activity for glycerol is 100.
# [1] = Optimum pH of RCG for oxidation (activity to oxidize glycerol); type: biochemical; details: 0.1 M glycerol, 2 mM NAD+, 30° C., pH 6 to pH 11
# Procedure: In order to study the optimum pH of RCG for oxidation, the activity to oxidize glycerol at pH6 to pH 11 was determined. The enzyme activity was determined by adding 0.1 M of the substrate glycerol, 2 mM of coenzyme NAD^+, 50 mM of KCl, 50 mM of NH4Cl, and the enzyme solution to a buffer to react at 30° C. for 3 min. followed by the measurement of an increase in absorbance at […]. As buffers, 100 mM phosphate buffers (pH 6.0 to pH 8.0), 100 mM Tris-HCl buffers (pH 8.0 to 9.0), and 100 mM carbonic acid buffers (pH 9.0 to pH 11.0) were used to measure the activity at pH 6 to pH 11.
# [2] = Action of RCG: stereoselective reduction of 1-chloro-3-hydroxyacetone; type: biochemical; details: reduction of 1-chloro-3-hydroxyacetone using NADH as a coenzyme
# Procedure: Furthermore, optical purity of the resulting 3-chloro-1,2-propanediol was determined by high performance liquid chromatography after tosylation.
# [3] = type: biochemical
# Procedure: Herein, the expression “having resistance to 1-chloro-3-hydroxyacetone” means that when 1-chloro-3-hydroxyacetone is added to a solution containing the polypeptide (the enzyme) of the present invention at the final concentration of 0.25% and the mixture is incubated at 30° C. for 20 hrs. followed by the determination of the activity to reduce 1-chloro-3-hydroxyacetone under the conditions described above, the resulting activity is 80% or more, preferably 85% or more, more preferably 90% or more of the activity determined without the pretreatment.
# Likewise, the expression “having resistance to 3-chloro-1,2-propanediol” means that when the activity to reduce 1-chloro-3-hydroxyacetone is determined after incubation at 30° C. for 20 hrs. in the presence of 1% of 3-chloro-1,2-propanediol, the resulting activity is 80% or more, preferably 90% or more, more preferably 95% or more of the activity determined without the pretreatment.
# In order to study the stability of RCG to 1-chloro-3-hydroxyacetone and to 3-chloro-1,2-propanediol, 1-chloro-3-hydroxyacetone was added at the final concentration of 0.25% to the enzyme solution and incubated at 30° C. followed by the measurement of the activity to reduce 1-chloro-3-hydroxyacetone by using the above enzyme solution. […]
# [4] = Optimum pH of RCG for reduction (activity to reduce dihydroxyacetone); type: biochemical; details: 10 mM dihydroxyacetone, 0.167 mM NADH, 30° C., pH 4 to pH 9
# Procedure: In order to study the optimum pH of RCG for reduction, the activity to reduce dihydroxyacetone at pH 4 to pH 9 was determined. The enzyme activity was determined by adding 10 mM of the substrate dihydroxyacetone, 0.167 mM of coenzyme NADH, 50 mM of KCl, 50 mM of NH4Cl, and the enzyme solution to a buffer to react at 30° C. for 3 min. followed by the measurement of a decrease in absorbance at […]. As buffers, 100 mM acetic acid buffers (pH4.0 to pH 6.0), 100 mM phosphate buffers (pH 6.0 to pH 8.0), and 100 mM Tris-HCl buffers (pH 8.0 to 9.0) were used to measure the activity at pH 4 to pH 9.
# [5] = substrate 10 mM, 2 mM NAD+, 100 mM phosphate buffer pH 8.0, 30° C., 3 min, activity for glycerol is 100
Molecule,Relative activity (RCG; [5]),other results
1-amino-2-propanol,12%,
2-butanol,0%,
"OCCC(O)CO (stereo not shown) [1,2,4-butanetriol]",21%,
"CCC(O)CO (stereo not shown) [1,2-butanediol]",129%,
"CCCCC(O)CO (stereo not shown) [1,2-hexanediol]",26%,
"CCCC(O)CO (stereo not shown) [1,2-pentanediol]",153%,
"CC(O)CO (stereo not shown) [1,2-propanediol]",142%,
"CC(O)CCO (stereo not shown) [1,3-butanediol]",3%,
"OC(CCl)CCl [1,3-dichloro-2-propanol]",0%,
"OCCCO [1,3-propanediol]",1%,
"OCCCCO [1,4-butanediol]",,Relative activity (RCG; pH 8): 1%
"CC(O)CCCO (stereo not shown) [1,4-pentanediol]",0%,
"CC(O)C(C)O (stereo not shown) [2,3-butanediol]",64%,
"OCC(O)CBr (stereo not shown) [3-bromo-1,2-propanediol]",58%,
"OCC(O)CCl (stereo not shown) [3-chloro-1,2-propanediol]",63%,
"OCC(O)CS (stereo not shown) [3-mercapto-1,2-propanediol]",129%,
"COCC(O)CO (stereo not shown) [3-methoxy-1,2-propanediol]",39%,
"CSCC(O)CO (stereo not shown) [3-methylthio-1,2-propanediol]",120%,
"OCC(O)COc1ccccc1 (stereo not shown) [3-phenoxy-1,2-propanediol]",9%,
CCO [ethanol],0%,
OCCO [ethylene glycol],,Relative activity (RCG; pH 8): 8%
OCC(O)CO [glycerol],100%,
CC(C)O [isopropanol],0%,
CO [methanol],0%,
CCCO [propanol],0%,
butanol,0%,
B1,,"optimum pH for oxidation [1]: 9.0; optical purity of (S)-3-chloro-1,2-propanediol formed [2]: 99.3 % e.e.; stability to 1-chloro-3-hydroxyacetone [3]: very stable; stability to 3-chloro-1,2-propanediol [3]: very stable; optimum pH for reduction [4]: 6.0"

# — patent US20080305534A1, “Novel Glycerol Dehydrogenase, Gene Therefor, and Method of Utilizing the Same” (priority 2004, published 2008)
